In ChEMBL document CHEMBL5137094, “Construction of Covalent Bisubstrate Inhibitor of Protein Kinase Reacting with Cysteine Residue at Substrate-Binding Site” (J Med Chem, 2022):

Tests used:
[1] = biological target: T1, cAMP-dependent protein kinase catalytic subunit alpha (Homo sapiens, UniProt P17612); assay: Inhibition of ARC-1063 fluorescent probe binding to recombinant human PKAC-alpha incubated for 1 hr by time-gated luminescence intensity based displacement assay
[2] = biological target: T1, cAMP-dependent protein kinase catalytic subunit alpha; assay: Displacement of ARC-1063 fluorescent probe from recombinant human PKAC-alpha assessed as dissociation half life preincubated for 1 hr followed by photoluminescent probe addition by time-gated luminescence intensity based assay
[3] = biological target: T1, cAMP-dependent protein kinase catalytic subunit alpha; assay: Displacement of ARC-1063 fluorescent probe from recombinant human PKAC-alpha assessed as dissociation equilibrium constant preincubated for 1 hr followed by photoluminescent probe addition by time-gated luminescence intensity based assay
[4] = biological target: T1, cAMP-dependent protein kinase catalytic subunit alpha; assay: Displacement of ARC-1063 fluorescent probe from recombinant human PKAC-alpha assessed as binding constant (kon) preincubated for 1 hr followed by photoluminescent probe addition by time-gated luminescence intensity based assay
[5] = biological target: T1, cAMP-dependent protein kinase catalytic subunit alpha; assay: Irreversible inhibition of ARC-1063 fluorescent probe binding to recombinant human PKAC-alpha incubated for 22 hrs followed by probe addition at 20 nM and further incubated for 1 hr by time-gated luminescence intensity based displacement assay
[6] = biological target: T1, cAMP-dependent protein kinase catalytic subunit alpha; assay: Inhibition of ARC-1063 fluorescent probe binding to recombinant human PKAC-alpha incubated for 22 hrs by time-gated luminescence intensity based displacement assay
[7] = biological target: T1, cAMP-dependent protein kinase catalytic subunit alpha; assay: Binding affinity to human recombinant PKAC-alpha assessed as reduction in TGLI signal at 10 uM pretreated with compound followed by ARC-1063 fluorescent probe addition by time-gated luminescence intensity based displacement assay; conditions: time 60-480 min, TDE = time-dependent effect
[8] = biological target: T1, cAMP-dependent protein kinase catalytic subunit alpha; assay: Binding affinity to human recombinant PKACalpha assessed as compound-protein adduct formation by measuring half life at 30 degreeC
[9] = biological target: T1, cAMP-dependent protein kinase catalytic subunit alpha; assay: Binding affinity to human recombinant PKAC-alpha assessed as inactivation constant incubated for 1 hr by time-gated luminescence intensity based displacement assay
[10] = biological target: T1, cAMP-dependent protein kinase catalytic subunit alpha; assay: Covalent inhibition of human recombinant PKAC-alpha assessed as inhibition constant
[11] = biological target: T1, cAMP-dependent protein kinase catalytic subunit alpha; assay: Binding affinity to human recombinant PKAC-alpha assessed as inactivation constant measured upto 60 mins by Western blot analysis
[12] = GSH reactivity in potassium phosphate buffer at pH 7.4 assessed as half life at 0.15 mM at 37 degreeC measured for 30 to 60 mins by HPLC-MS analysis; assay type: physicochemical; conditions: potassium phosphate buffer with GSH, time 30-60 min

Compound | IC50 [1] [nM] | T1/2 [2] [h] | IC50 [5] [nM] | IC50 [6] [nM] | Activity [7] | Kinact [9] | Ki [10] [nM] | also measured
CC[C@H](C)[C@H](NC(=O)CCC(=O)N[C@@H](CCCCNC(=O)[C@@H](CCCNC(=N)N)NC(=O)CCCCCCCC(=O)N1CCN(c2ncnc3[nH]ccc23)CC1)C(=O)N[C@H](CCCNC(=N)N)C(=O)N[C@H](CCCNC(=N)N)C(=O)N[C@H](CCCNC(=N)N)C(N)=O)C(=O)NCC(=O)CF | – | – | – | – | Tde | 5.1 10^-4/s | 0.0068 | Kinact [11]: 4.2 10^-4/s
NC(=O)CF [MONOFLUOROACETAMIDE] | – | – | – | – | – | – | – | half-life at 150 µM [12]: > 70 h

Continued, in another order:

IC50 [1] [nM] | T1/2 [2] [h] | IC50 [5] [nM] | IC50 [6] [nM] | Activity [7] | Kinact [9] | Ki [10] [nM] | Compound | also measured
790 | 0.00833 | – | – | – | – | – | CC[C@H](C)[C@H](NC(=O)CCC(=O)N[C@@H](CCCCNC(=O)[C@@H](CCCNC(=N)N)NC(=O)CCCCCCCC(=O)N1CCN(c2ncnc3[nH]ccc23)CC1)C(=O)N[C@H](CCCNC(=N)N)C(N)=O)C(=O)NCC(C)=O | Kd [3]: 0.63 nM; K [4]: 3.8 10^7/M/s
400 | – | 5300 | 500 | – | – | – | N=C(N)NCCC[C@@H](NC(=O)CCCCCNC(=O)[C@@H](CCCNC(=N)N)NC(=O)CCCCCCCC(=O)N1CCN(c2ncnc3[nH]ccc23)CC1)C(N)=O | –
1200 | > 2.5 | 800 | 500 | Tde | 7.7 10^-5/s | 0.63 | CC[C@H](C)[C@H](NC(=O)CCC(=O)N[C@@H](CCCCNC(=O)[C@@H](CCCNC(=N)N)NC(=O)CCCCCCCC(=O)N1CCN(c2ncnc3[nH]ccc23)CC1)C(=O)N[C@H](CCCNC(=N)N)C(N)=O)C(=O)NCC(=O)CF | T1/2 [8]: 2.52 h
